For one series, the system named is phosphorylase. The settings on record: in combination with uridine (Martin et al); cited from earlier work.
Another series in a line: BAU toxicity in animals. The format is in vivo. The settings on record: animal data. The protocol:
BAU may be administered orally at the rate of 0.5-2 g/m^2 every 4-6 hours for 3 days starting 1/2-2 hours after 5-FU administration, i.e., between 6 g/m^2 /wk and 36 g/m^2 /wk. Based on animal data BAU is non-toxic. Accordingly, it appears that the amounts of BAU which can be administered are not limited by toxic effects and, therefore, increased amounts of BAU may be administered.

Series [1] in a line: Toxic dose of weekly 5-FU and severity of myelosuppression in patients (Table 1). It is filed as in vivo, human. The settings on record: for Toxic dose: weekly i.v. 5-FU. On the procedure: A representative schedule of clinical administration includes administering weekly i.v. injections of a bolus of 5-FU on an outpatient basis. A typical starting dose is about 500 mg/m^2. Every four weeks the 5-FU dose is increased by 20% until dose-limiting toxicity occurs, which can be indicated by weight loss, or destruction of bone marrow cells and the loss of white blood cells.

The nature of series [2]: Toxicity of 5-FU and tumor weight in tumor-bearing CD8FI female mice (Table 2). The settings on record: mouse, in vivo, iv.
For series [3], the system named is tumor. The description is as above.
The nature of series [4]: Toxicity of 5-FU 130 mg/kg/wk in CD8FI female mice with breast tumors (FIG. 1). The settings on record: mouse, in vivo, iv; 5-FU 130 mg/kg/wk i.v. × 3 weeks. The format is in vivo, mouse. The protocol: (§1) FIG. 1 is a plot showing the toxicity of 5-fluorouracil. Toxicity in the plot is measured as a function of the percent of body weight change over time.
(§2) FIG. 1 establishes that 5-FU administered by i.v. in doses of 130 mg/kg/wk to mice is a toxic dose. Toxicity is determined by a change in body weight. Ten CD8FI female mice with breast tumors were treated with weekly doses of 5-fluorouracil in amounts of 130 mg/kg for three weeks. The percent of body weight change of the mice is shown and plotted over a period of approximately 12 days after administration of the last dose. The mice receiving 130 mg/kg of 5-FU suffered a weight loss of approximately 25% and a mortality of 30%.

Another series relates to breast tumors. Described as above. The format is in vivo, mouse. On the procedure: as §1, §2
Series [5] concerns tumor. Put plainly: 5-FU and oral BAU in tumor-bearing CD8FI mice (Table 5). The note with it: 5-FU 150 mg/kg/wk.
The conditions of series [6]: in vivo, cited from earlier work.
In series [7] the test system is tumor. Briefly: 5-FU and oral uridine rescue in tumor-bearing CD8FI mice (Table 4). It is filed as in vivo, mouse. The settings on record: 5-FU 150 mg/kg weekly. The protocol:
(§3) Observations were recorded 6 days after the last injection.
(§4) A second trial was repeated by administering uridine 2 hours after the administration of 5-fluorouracil in a concentration of 780 mg/kg and then 2 1/2 hours later at a concentration of 1,040 mg/kg every 8 hr×5.

In series [8] the test system is tumor. Briefly: 5-FU and oral uridine rescue plus BAU in tumor-bearing CD8FI mice (Table 7). The note with it: 5-FU 150 mg/kg. The format is in vivo, mouse. The protocol:
as §3, §4

In the next series the test system is thymidylate synthetase. The settings on record: Goodman & Gilman 5th Ed.; cited from earlier work.
The mark [9] stands for this setting: patient 1, weekly 5-FU toxic dose 720 mg/m^2.
The mark [10] stands for this setting: patient 2, weekly 5-FU toxic dose 600 mg/m^2.
[11] abbreviates: patient 3, weekly 5-FU toxic dose 600 mg/m^2.
Where [12] appears, read: patient 4, weekly 5-FU toxic dose 864 mg/m^2.
[13] abbreviates: patient 5, weekly 5-FU toxic dose 864 mg/m^2.
The mark [14] stands for this setting: patient 6, weekly 5-FU toxic dose 864 mg/m^2.
Setting [15] is: patient 7, weekly 5-FU toxic dose 600 mg/m^2.
Where [16] appears, read: patient 8 (first), weekly 5-FU toxic dose 720 mg/m^2.
Where [17] appears, read: patient 8 (second), weekly 5-FU toxic dose 720 mg/m^2.
[18] abbreviates: 5-FU 100 mg/kg i.v. weekly × 3, 6 days after last injection.
Setting [19] is: 5-FU 150 mg/kg i.v. weekly × 3, 6 days after last injection.
Where [20] appears, read: then oral UR 600 mg/kg at 2 hrs, then 800 mg/kg q. 8 hr × 5.
Setting [21] is: then oral UR 780 mg/kg at 2 hrs, then 1,040 mg/kg q. 8 hr × 5.
The mark [22] stands for this setting: oral UR 600 then 800 mg/kg q. 8 hr × 5, plus oral BAU 250 mg/kg.
[23] abbreviates: oral UR 780 then 1,040 mg/kg q. 8 hr × 5, plus oral BAU 250 mg/kg.

Take `O=c1[nH]c(=O)n(COCCO)cc1Cc1ccccc1` [BAU, 5-benzylacyclouridine]: the “effect on uridine breakdown and clearance” value in the series on phosphorylase is “prevents the breakdown of uridine by phosphorylase and the subsequent rapid body clearance of uridine”. The toxicity entry in the series “BAU toxicity in animals” was “non-toxic”.

Turning to `O=c1[nH]cc(F)c(=O)[nH]1` [5-FU, 5-fluorouracil], the “Nadir at toxicity, Platelets” value in series [1] (setting [9]) was found to be 1.51e+08 mL⁻¹; in series [1] (setting [10]) it was 1.01e+08 mL⁻¹; in series [1] (setting [11]), 7.6e+07 mL⁻¹; in series [1] (setting [12]), 1.1e+08 mL⁻¹; in series [1] (setting [13]), 2.05e+08 mL⁻¹; in series [1] (setting [14]) it was 8.4e+07 mL⁻¹. The “Nadir at toxicity, Platelets” value stood at 8.2e+07 mL⁻¹ in series [1] (setting [15]), 9.5e+07 mL⁻¹ in series [1] (setting [16]) and 7.4e+07 mL⁻¹ in series [1] (setting [17]). The “Nadir at toxicity, wbc” value in series [1] (setting [9]) was determined as 1.6e+06 mL⁻¹; in series [1] (setting [10]), 2.7e+06 mL⁻¹; in [1] (setting [11]), 1.4e+06 mL⁻¹; in [1] (setting [12]), 2.8e+06 mL⁻¹; in [1] (setting [13]), 2e+06 mL⁻¹; in [1] (setting [14]), 4.3e+06 mL⁻¹. Also, the “Nadir at toxicity, wbc” value was found to be 6.7e+06 mL⁻¹ in [1] (setting [15]), 4.1e+06 mL⁻¹ in series [1] (setting [16]) and 3.7e+06 mL⁻¹ in series [1] (setting [17]). In addition, the Toxic dose in series [1] (patient 1, WHO 1, prior chemotherapy None) stood at 720 mg/m^2; in series [1] (patient 2, WHO 1, prior chemotherapy None), 600 mg/m^2; in series [1] (patient 3, WHO 0, prior HAI 5-FU), 600 mg/m^2; in [1] (patient 4, WHO 2, prior chemotherapy None), 864 mg/m^2; in [1] (patient 5, WHO 1, prior chemotherapy None) it was 864 mg/m^2; in series [1] (patient 6, WHO 1, prior HAI 5-FU), 864 mg/m^2. The Toxic dose in series [1] (patient 7, WHO 1, prior TGU) was 600 mg/m^2; in series [1] (patient 8 (first), WHO 1, prior chemotherapy None), 720 mg/m^2; in [1] (patient 8 (second), WHO 0, prior FAC), 720 mg/m^2; in the series with breast tumors (i.v., mice), 130 mg/kg/wk. The MTD in series [2] is 100 mg/kg. Also, the Mortality in series [2] (150 mg/kg) is 80%; with tumor [3] (setting [18]), 0/10; in the series on tumor [3] (setting [19]), 8/10; in [4], 30%. Also, the results for the “Tumor Weight” value in the series on tumor [3] (setting [18]) and in the series with tumor [3] (setting [19]) were 688 mgs and 433 mgs, respectively. The weight loss entry in the series with breast tumors (5-FU 130 mg/kg/wk i.v. × 3 weeks) was “approximately 25%”. Also, in the series with tumor [5], the “lethality of 5-FU (in words)” value is on record as “lethal dose”.

Consider `O=c1ccn([C@@H]2O[C@H](CO)[C@@H](O)[C@H]2O)c(=O)[nH]1` [uridine], for which, in [6] (iv), the “side effects of intravenous uridine” value is “fever and phlebitis”. The “side effects of oral uridine in large doses” value in [6] (po) is recorded as “irritates the gastrointestinal tract, which frequently causes severe diarrhea”. Further, the catabolism of uridine result in series [6] is reported as “quickly catabolized”. The “plasma uridine levels after large doses of uridine” value in series [6] was “millimolar or high micromolar uridine levels”. Further, the Mortality with tumor [7] (setting [20]) is 4/10; with tumor [7] (setting [21]), 0/10; in the series with tumor [8] (setting [22]), 0/10; with tumor [8] (setting [23]), 1/10. Also, the “Tumor Weight” value is 242 mgs in the series on tumor [7] (setting [20]), 361 mgs with tumor [7] (setting [21]), 475 mgs in the series on tumor [8] (setting [22]) and 434 mgs in the series with tumor [8] (setting [23]).

With `O=c1[nH]c(=O)n([C@H]2C[C@H](O)[C@@H](COP(=O)(O)O)O2)cc1F` [F-dUMP, 5-fluoro-2'-deoxyuridine-5'-phosphate], in the series with thymidylate synthetase, the “affinity for thymidylate synthetase” value is “unusually great affinity”.
